Reference: paper PMC4244111, “Structure of Putrescine Aminotransferase from Escherichia coli Provides Insights into the Substrate Specificity among Class III Aminotransferases” (PLoS ONE, 2014)

Target: T1, YgjG (Escherichia coli, UniProt P42588)
T1 construct: gene patA; full-length, C-terminal His6 tag, expressed in E. coli B834(DE3); homodimer; seven N-terminal and one C-terminal residues not visible
Assay: X-ray crystallography, […] Å
Format: binding
Conditions: crystal pH 7.5; covalent, Schiff base with Lys300; active site at dimer interface

T1 sequence (P42588 whole entry): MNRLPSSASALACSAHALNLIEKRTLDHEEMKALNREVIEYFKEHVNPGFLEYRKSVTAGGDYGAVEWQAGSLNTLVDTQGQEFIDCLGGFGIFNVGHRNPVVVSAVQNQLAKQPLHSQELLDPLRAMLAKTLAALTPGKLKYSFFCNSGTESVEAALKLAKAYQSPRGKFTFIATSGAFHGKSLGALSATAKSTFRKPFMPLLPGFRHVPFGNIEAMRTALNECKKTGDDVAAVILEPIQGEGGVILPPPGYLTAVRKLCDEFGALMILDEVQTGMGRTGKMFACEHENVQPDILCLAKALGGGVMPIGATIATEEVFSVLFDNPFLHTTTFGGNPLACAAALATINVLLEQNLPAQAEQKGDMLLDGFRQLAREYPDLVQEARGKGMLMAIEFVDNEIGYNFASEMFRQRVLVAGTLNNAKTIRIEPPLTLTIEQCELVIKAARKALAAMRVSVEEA

## Cc1ncc(COP(=O)(O)O)c(C=O)c1O [pyridoxal-5′-phosphate]
  X-ray crystallography, 2.3 Å: PLP is covalently linked to the strictly conserved lysine residue (Lys300) via a Schiff base linkage
